The record followed here is US20230000842A1, “METHODS OF TREATING CARTILAGE DISORDERS THROUGH INHIBITION OF CLK AND DYRK” (SAMUMED, LLC, priority 2019, published 2023).

The structures appear in SMILES notation. Bounds are passed on as bounds.

For experiment [1], the system named is Wnt pathway activity (SW480 colon carcinoma cells stably expressing the Sp5-Luc reporter). Briefly: Wnt pathway activity screening assay (Sp5-Luc reporter gene assay). As to conditions: Homo sapiens. For orientation: A reporter such as luciferase makes a cellular process visible.
For experiment [2], the system named is primary human mesenchymal stem cells (hMSCs). The experiment is described as follows: Chondrogenesis screening using primary human mesenchymal stem cells. The experiment is classed as cell-based. To be noted: Homo sapiens, Mesenchymal stem cells, hMSC chondrogenesis; for EC50: concentration required to induce 50% levels of chondrogenesis with TGF-β3 as positive control, read-out: Conc (nM) of 50% TGF-β3 activity; for Emax: maximum activity relative to TGF-β3 (10 ng/mL) positive control, read-out: Max. Activity as % TGF-β3 activity. The procedure, abridged:
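Derived values are EC50 for 50% chondrogenesis, maximal activity and the dose giving it. These come from nodule area in passage 3–6 primary hMSCs, expressed as fold change over the mean of 3 same-plate DMSO wells, 2–3 replicates per concentration. TGF-β3 served as positive control.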

Experiment [3] has as its system MMP-3 levels in supernatant of chondrocytes stimulated with IL1-β. Briefly: Chondrocyte protection assay compound screening (MMP-3 LANCE Ultra). It is filed as cell-based, human. To be noted: Homo sapiens, Chondrocyte, IL1-β 10 ng/mL overnight, 11-point curves from 3 μM to 0.05 nM; for Emax: read-out: Maximum % Inhibition. The procedure, abridged: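 Primary human chondrocytes (passage 2–5) in differentiation medium were stimulated with 10 ng/mL IL1-β for an overnight incubation at 37 °C. MMP-3 in 1:7-diluted supernatant was read by TR-FRET immunoassay against a standard curve, normalised to IL1-β-stimulated wells; EC50 and maximum % inhibition came from nonlinear regression.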

A further experiment addresses CLK2 kinase (Homo sapiens, UniProt P49760). Briefly: CLK2 kinase activity assay (Z-lyte FRET).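 Also: FRET read-out as coumarin to fluorescein emission ratio, unphosphorylated peptide as 0% and phosphorylated peptide as 100% controls, duplicate reactions, non-linear regression fit of dose-response curves.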 As to conditions: Z-lyte Ser/Thr 6 peptide, 60 μM ATP, 1 h at room temperature. It is filed as biochemical.
The next experiment has as its target CLK3 kinase (Homo sapiens, UniProt P49761). The experiment is described as follows: CLK3 kinase activity assay (Z-lyte FRET).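 Also: kinase activity read as coumarin/fluorescein emission ratio by FRET, unphosphorylated peptide as 0% and phosphorylated peptide as 100% control, values from non-linear regression of dose-response curves.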 The experiment is classed as biochemical. As to conditions: Z-lyte Ser/Thr 18 peptide, 156 μM ATP, 1 h at room temperature.
Where [4] appears, read: SW480, Table 4, SW480 cells stably expressing Sp5-Luc reporter, 10-point dose-response from 10 μM, 36 to 48 hours.

Chain of CLK3 kinase (P49761 whole entry): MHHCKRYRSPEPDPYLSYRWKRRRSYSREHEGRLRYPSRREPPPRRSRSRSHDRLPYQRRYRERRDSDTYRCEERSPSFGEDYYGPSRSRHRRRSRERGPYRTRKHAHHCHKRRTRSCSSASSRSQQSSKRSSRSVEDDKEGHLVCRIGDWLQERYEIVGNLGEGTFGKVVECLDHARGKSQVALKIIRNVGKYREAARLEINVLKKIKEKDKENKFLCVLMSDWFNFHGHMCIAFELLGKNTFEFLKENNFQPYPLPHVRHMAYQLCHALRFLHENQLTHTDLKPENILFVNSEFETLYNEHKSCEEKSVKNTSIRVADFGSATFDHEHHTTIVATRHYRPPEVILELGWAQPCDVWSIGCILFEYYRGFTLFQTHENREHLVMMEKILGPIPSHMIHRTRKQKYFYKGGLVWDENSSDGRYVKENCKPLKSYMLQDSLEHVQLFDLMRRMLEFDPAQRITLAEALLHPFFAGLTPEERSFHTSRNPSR
Chain of CLK2 kinase (P49760 whole entry): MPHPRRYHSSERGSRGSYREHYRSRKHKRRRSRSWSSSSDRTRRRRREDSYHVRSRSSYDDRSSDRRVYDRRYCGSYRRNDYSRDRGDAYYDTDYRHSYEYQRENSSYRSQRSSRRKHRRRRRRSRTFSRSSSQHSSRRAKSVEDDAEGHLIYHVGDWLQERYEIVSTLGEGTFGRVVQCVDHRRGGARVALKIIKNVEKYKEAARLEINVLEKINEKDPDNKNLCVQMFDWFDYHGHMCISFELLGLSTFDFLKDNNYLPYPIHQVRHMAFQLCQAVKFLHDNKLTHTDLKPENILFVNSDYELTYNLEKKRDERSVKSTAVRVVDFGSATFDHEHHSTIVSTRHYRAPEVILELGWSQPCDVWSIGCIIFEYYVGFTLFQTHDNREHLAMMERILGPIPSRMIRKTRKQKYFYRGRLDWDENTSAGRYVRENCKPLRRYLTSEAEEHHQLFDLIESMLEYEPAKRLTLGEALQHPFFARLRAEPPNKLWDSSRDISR

Consider `CN1CCN(c2nccc3[nH]c(-c4n[nH]c5cc(F)c(-c6cnn(C)c6)cc45)nc23)CC1` [compound 219], for which the EC50 in experiment [1] (setting [4]) was 85.7 nM; in experiment [2], 30 nM; in experiment [3], 35.5 nM; at CLK2 kinase, 1 nM; at CLK3 kinase, 26 nM. In addition, the figures for the Emax in experiment [2] and in experiment [3] were 113% and 87.3%, respectively.
Regarding `c1cncc(-c2ccc3[nH]nc(-c4nc5c(N6CCOCC6)cncc5[nH]4)c3c2)c1` [compound 220], the EC50 in experiment [1] (setting [4]) is 23 nM; in experiment [3], 13.6 nM; on CLK2 kinase, 1 nM; at CLK3 kinase, 61 nM. The Emax was 90.4% in experiment [2] and 100% in experiment [3].
`O=C(Nc1c[nH]nc1C(=O)Nc1cncc(-c2cccc(F)c2)c1)c1cncc(OC2CCNCC2)c1` [compound 14]: the EC50 in experiment [1] (setting [4]) is 1600 nM; in experiment [3] it was 339 nM; on CLK2 kinase, 10 nM; on CLK3 kinase, 4300 nM. Besides, the Emax in experiment [2] turned out to be 89.5%; in experiment [3], 71.9%.
As to `CC(C)Oc1cncc(C(=O)Nc2c[nH]nc2C(=O)Nc2ccc(OC3CCN(C)CC3)nc2)c1` [compound 10], the EC50 turned out to be 90.3 nM in experiment [1] (setting [4]); 2700 nM in experiment [2]; 1.5 nM in experiment [3]; 6 nM at CLK2 kinase; 1780 nM on CLK3 kinase. The Emax in experiment [2] came to 140%; in experiment [3] it was 46.9%.
As to `Cn1cc(-c2cc3c(C(=O)Nc4ccc(CN5CCCC5)cc4)n[nH]c3cc2F)cn1` [compound 107], the EC50 in experiment [1] (setting [4]) was 242 nM; in experiment [3], ≥ 3000 nM; at CLK2 kinase it was 1 nM; at CLK3 kinase it was 90 nM. Besides, the Emax came out at 27.4% in experiment [2] and 22.9% in experiment [3].
Take `CC(C)CC(=O)Nc1cncc(-c2cc3c(-c4nc5c(-c6cc(F)cc(OCCN7CCCC7)c6)cncc5[nH]4)n[nH]c3cn2)c1` [compound 298]: the EC50 in experiment [1] (setting [4]) was > 10000 nM; in experiment [3], ≥ 3000 nM; at CLK2 kinase, 1 nM; on CLK3 kinase, 13 nM. For the same molecule, the Emax in experiment [2] was 20.3%; in experiment [3], 23.2%.
Turning to `O=C(Nc1cncc(-c2cnc3[nH]nc(-c4cc5c(-c6ccncc6)cncc5[nH]4)c3c2)c1)C1CCC1` [compound 394], the EC50 in experiment [1] (setting [4]) is > 10000 nM; in experiment [3], 17.9 nM; at CLK2 kinase it was 3 nM; on CLK3 kinase, 69 nM. Also, the results for the Emax in experiment [2] and in experiment [3] were 43.5% and 90.4%, respectively.
As to `O=C(Nc1cccnc1)c1n[nH]c2ccc(-c3cncc(CN4CC5CC(C4)O5)c3)cc12` [compound 101], the EC50 in experiment [1] (SW480) is 67 nM; in experiment [2], 900 nM; in experiment [3] it was ≥ 3000 nM; at CLK2 kinase, 1 nM; at CLK3 kinase it was 44 nM. For the same molecule, the Emax in experiment [2] came out at 121%; in experiment [3], 45.7%.
Turning to `CCNCc1cncc(-c2cc3c(-c4cc5c(-c6cccnc6)cncc5[nH]4)n[nH]c3cn2)c1` [compound 367], the EC50 in experiment [1] (setting [4]) is 3730 nM; in experiment [2], 10 nM; in experiment [3], ≥ 3000 nM; on CLK2 kinase, 2 nM; at CLK3 kinase, 214 nM. In addition, the Emax in experiment [2] was found to be 67.6%; in experiment [3] it was 75.7%.
In the case of `CCNCc1cncc(-c2cnc3[nH]nc(-c4cc5c(-c6cc(F)cc(CNS(C)(=O)=O)c6)cncc5[nH]4)c3c2)c1` [compound 533], the EC50 was > 10000 nM in experiment [1] (setting [4]), ≥ 3000 nM in experiment [3], 2 nM on CLK2 kinase and 51 nM at CLK3 kinase. Besides, the Emax stood at 42.8% in experiment [2] and 40.8% in experiment [3].
With `CC(C)Nc1cncc(-c2ccc3[nH]nc(-c4nc5c(-c6cc(F)cc(NCCN(C)C)c6)cncc5[nH]4)c3n2)c1` [compound 284], the EC50 in experiment [1] (setting [4]) is 1660 nM; in experiment [2] it was 300 nM; in experiment [3] it was ≥ 3000 nM; at CLK2 kinase, 1 nM; at CLK3 kinase it was 25 nM. The Emax is 96.8% in experiment [2] and 32.9% in experiment [3].
In the case of `CN1CCN(c2cncc3[nH]c(-c4n[nH]c5ccc(-c6cncc(CNCc7ccccc7)c6)cc45)cc23)CC1` [compound 490], the EC50 stood at 3290 nM in experiment [1] (setting [4]), 329 nM in experiment [3], 3 nM at CLK2 kinase and 142 nM at CLK3 kinase. Further, the Emax turned out to be 101% in experiment [2] and 80.2% in experiment [3].
On to `CC(C)OCCCNC(=O)c1n[nH]c2ccc(-c3cccnc3)cc12` [compound 58], for which the EC50 was 464 nM in experiment [1] (setting [4]), 10.8 nM in experiment [3], 10 nM at CLK2 kinase and 9840 nM on CLK3 kinase. Besides, the values for the Emax in experiment [2] and in experiment [3] were 92.5% and 61.1%, respectively.
As for `CN1CCN(c2nccc3[nH]c(-c4n[nH]cc4/C=C/c4cncc(F)c4)nc23)CC1` [compound 25], the EC50 was 325 nM in experiment [1] (setting [4]), ≥ 3000 nM in experiment [3], 1 nM on CLK2 kinase and 326 nM on CLK3 kinase. In addition, the figures for the Emax in experiment [2] and in experiment [3] were 39% and 91.9%, respectively.
Consider `CC(C)CC(=O)Nc1cncc(-c2ccc3[nH]nc(-c4nc5c(-c6cccnc6)cncc5[nH]4)c3c2)c1` [compound 189], for which the EC50 in experiment [1] (setting [4]) worked out at 12 nM; in experiment [2], 100 nM; in experiment [3], 111 nM; on CLK2 kinase it was 8 nM; on CLK3 kinase, 26 nM. The Emax in experiment [2] turned out to be 198%; in experiment [3], 100%.
On to `Fc1ccc(-c2nnc(-c3n[nH]cc3/C=C/c3cccnc3)o2)cc1` [compound 23], for which the EC50 in experiment [1] (setting [4]) was 1510 nM; in experiment [3] it was ≥ 3000 nM; on CLK2 kinase it was 27 nM; at CLK3 kinase, 627 nM. Besides, the Emax in experiment [2] came to 23.4%; in experiment [3] it was 51.7%.
For `Cc1cn(-c2cncc3[nH]c(-c4n[nH]c5ccc(-c6cncc(NC(=O)C(C)(C)C)c6)nc45)nc23)cn1` [compound 222], the EC50 in experiment [1] (setting [4]) was > 10000 nM; in experiment [2] it was 100 nM; in experiment [3] it was 1150 nM; on CLK2 kinase, 3 nM; at CLK3 kinase it was 263 nM. For the same molecule, the Emax in experiment [2] was determined as 150%; in experiment [3], 64.9%.
Take `CN1CCCn2cc(nn2)-c2nccc3[nH]c(nc23)-c2n[nH]c3ccc(cc23)-c2cncc(c2)C1` [compound 621]: the EC50 was 338 nM in experiment [1] (setting [4]); 10 nM in experiment [2]; ≥ 3780 nM in experiment [3]; 3 nM at CLK2 kinase; 26 nM at CLK3 kinase. Also, the Emax in experiment [2] is 181%; in experiment [3], 46.5%.
Take `CC(C)NC(=O)c1n[nH]c2ccc(-c3cncc(CN4CCC(F)(F)CC4)c3)cc12` [compound 75]: the EC50 in experiment [1] (setting [4]) turned out to be 47.1 nM; in experiment [2], 2700 nM; in experiment [3] it was 8 nM; at CLK2 kinase, 13 nM; on CLK3 kinase it was 4020 nM. Moreover, the Emax in experiment [2] is 104%; in experiment [3], 95.1%.
In the case of `O=C1COc2cccc(c2)-c2cncc3[nH]c(nc23)-c2n[nH]c3ccc(cc23)-c2cncc(c2)N1` [compound 620], the EC50 in experiment [1] (setting [4]) was 86.8 nM; in experiment [2] it was 100 nM; in experiment [3], 37.4 nM; on CLK2 kinase it was 3 nM; on CLK3 kinase, 16 nM. In addition, the Emax was found to be 185% in experiment [2] and 37.1% in experiment [3].
Regarding `Cc1ccc(-c2nccc3[nH]c(-c4n[nH]c5ccc(-c6cncc(N)c6)nc45)nc23)s1` [compound 275], the EC50 was 45.5 nM in experiment [1] (setting [4]); 10 nM in experiment [2]; ≥ 3000 nM in experiment [3]; 1 nM at CLK2 kinase; 20 nM at CLK3 kinase. Moreover, the Emax in experiment [2] was 72.6%; in experiment [3], 58.4%.
Turning to `CN1CCN(c2cc(Nc3ncc4c(-c5ccc6ncccc6c5)c[nH]c4n3)ccn2)CC1` [compound 623], the EC50 in experiment [1] (setting [4]) was 284 nM; in experiment [2], 30 nM; in experiment [3], ≥ 9980 nM; at CLK2 kinase, 2 nM; at CLK3 kinase, 10 nM. Moreover, the Emax in experiment [2] stood at 73.4%; in experiment [3] it was 89.5%.
As for `CC(C)C(=O)Nc1cncc(-c2ccc3[nH]nc(-c4nc5c(-c6ccccc6F)cncc5[nH]4)c3c2)c1` [compound 173], the EC50 in experiment [1] (setting [4]) was 4 nM; in experiment [2], 30 nM; in experiment [3], ≥ 3000 nM; at CLK2 kinase, 4 nM; on CLK3 kinase, 24 nM. The Emax in experiment [2] worked out at 102%; in experiment [3], 90.2%.
On to `O=C(Nc1c[nH]nc1C(=O)Nc1ccc(N2CCC(F)(F)C2)nc1)c1cncc(OC2CCNCC2)c1` [compound 12], for which the EC50 came to 2220 nM in experiment [1] (setting [4]), 280 nM in experiment [3], 6 nM at CLK2 kinase and 6020 nM at CLK3 kinase. Further, the Emax in experiment [2] came out at 75.2%; in experiment [3], 88.7%.
